Test results reported in patent US20240376098A1, “METHODS OF TREATMENT USING BCN057, BCN077 AND ANALOGS” (BCN Biosciences L.L.C., priority 2021, published 2024).

Tests used:
Format in all cases: cell-based, human
[1] = tested on: PTEN; assay: Western blot of PTEN protein expression in Panc-1 cells; settings: 10 μM, 20 minutes to 24 hours
Method: (§1) Western Blot: Cells were harvested and lysed in cell lysis buffer on ice for 15 minutes and the lysate was centrifuged at 13,000 rpm at 4° C. for 10 minutes. The supernatant was transferred into a new tube for BCA protein quantification assay (Thermo Fisher Scientific) and the samples were normalized. 3× loading buffer (Cell Signaling) was added the protein sample and boiled for 5 minutes. The samples were used for SDS-PAGE analysis and transferred to nitrocellulose membrane. The membrane was blocked with 5% BSA at room temperature for 1 hour and incubated with primary antibody at 4° C. overnight. The membrane was washed with 1×TBST 5 minutes for 3 times and incubated with horseradish peroxidase-conjugated secondary antibody for 1 hour at room temperature. The protein was visualized by SuperSignal West Pico Stable Peroxide Solution (Thermo Fisher Scientific). The blot was visualized by chemiluminescence using a BioRad Versadoc Imaging System. In KRAS dependent tumors, c-Jun acts to suppress Phosphatase and tensin homolog (PTEN) expression at the promoter level and that suppression of PTEN expression is essential for anti-apoptosis and cellular transformation by oncogenic RAS. Thus, we investigated PTEN expression levels in response to BCN057. […] FIG. 4A is a western blot of Phospho-c-Jun (T-91/93). […] Phosphorylation of c-Jun at T-91/93 is known to induce apoptosis. […]

[2] = tested on: Panc-1 cells; assay: ATPLite luminescence viability assay on Panc-1 cells
Method: Viability Assay. To determine the effects of BCN 057 in comparison and combination with irinotecan, Oxaloplatin and 5Fu, the ATPLite Luminescence Assay System was used according to manufacturer's instructions. On day 1, 3,000 Panc-1 cells per well were seeded in 96-well white, opaque sterile tissue culture treated microplates and incubated for 24 hours in complete medium at 37° C., 5% CO2. On day 2, the media was exchanged with media containing various combinations of 10 uM BCN 057, 25 μM 5-Fu, 75 μM Oxaloplatin, and 50 μM Irinotecan and incubated at 37° C., 5% CO2. On day 3,4, and 5, the ATP Lite Assay was performed according to manufacturer's instructions for the 24, 48, and 72 hr timepoints. Unless otherwise stated, values were represented as a percent of the control which is the vehicle for each drug. No difference was found in viability between any control vehicle.
Statistics. The results are shown by calculating the averages (±Standard deviation) in comparison to untreated controls with the indicated (n). The Percent Viability was calculated by dividing the average of each condition by the average of the untreated control (vehicle). Statistical analysis was performed in excel.
The first example entailed studying the effect of BCN057 in pancreatic cancer cells. Panc-1 cells, a G12D KRAS mutant cell line was treated with BCN057 for 48 hours.
All data points are n=5. Control (ND) received no drug and BCN057 at 2, 5, 10, and 20 μM final concentration. The Percent viability was calculated by dividing the average value for each condition by the average value of the control cells (V) at each time point.
Further, these doses span the concentrations found in plasma during efficacy studies in rodents. Subsequently, microscope images appeared to show cell blebbing and fragmentation shortly after application of BCN057 indicating possible apoptosis. […] Blebbing and cell fragmentation was noted within 20 min of incubation with drug (as shown with the arrows). Cell fragmentation was seen between 20-30 minutes after exposure to the drug.
The anti-apoptotic phenotype of KRAS is associated with significant resistance to chemotherapy. Thus, to examine whether BCN057 enhances cytotoxic chemotherapeutic agents such as 5-Fluorouracil, also known as 5FU, Panc1 cells were pre-treated with 5FU as reported and incubated with BCN057. […] The effect followed a dose dependent response for BCN057 and was consistent over 24, 48 and 72 hrs after BN057 treatment (24 and 48 hrs not shown).
All data points are n=5. Control (ND) received no drugs. Study groups include 5FU (50 μM), 057 (BCN057 at 2, 5, 10, and 20 μM or 5FU+BCN057 (BCN057 at 2, 5, 10, and 20 μM in combination with 5FU at 50 μM). The Percent viability was calculated by dividing the average value for each condition by the average value of the control cells (V) with standard deviation at each time point
Combined chemotherapy and cytotoxicity: Other cytotoxic drugs commonly used in the treatment of pancreatic or colorectal cancer were then examined in similar fashion such as those within FOLFIRINOX such as 5FU, Irinotecan and Oxaliplatin in combination equivalent doses of BCN057 over 24, 48 and 72 hours.
FIG. 6 is a histogram showing the cytotoxicity of Oxaliplatin and Irinotecan, individually or in combination with 5FU and BCN057 on Panc-1 cells. Cells were incubated with Oxaliplatin, Irinotecan and 5FU with concentrations at 10 μM each and BCN057 (057) also at 10 μM with n=4 for all assays.

[3] = tested on: c-Jun; assay: Western blot of Phospho-c-Jun (T-91/93) in Panc-1 cells
Method: as §1, with “Phosphorylation at T 91/93 in” for “In KRAS dependent tumors,”, “was measured as a function of total c-Jun. Significant phosphorylation at T 91/93 was observed which has been reported” for “acts”, “be associated with” for “suppress Phosphatase and tensin homolog (PTEN) expression at”, “activation” for “promoter level and that suppression”, “c-Jun's pro-apoptotic activity.” for “PTEN expression is essential for anti-apoptosis and cellular transformation by oncogenic RAS. Thus, we investigated PTEN expression levels in response to BCN057.”, “apoptosis. Total c-Jun protein level was unchanged.” for “apoptosis.”

Compound: COc1ccc2cc(-c3nc4ccc(C)cn4c3NCc3ccco3)c(=O)[nH]c2c1 [BCN057, 3-[(Furan-2-ylmethyl)-amino]-2-(7-methoxy-2-oxo-1,2-dihydro-quinolin-3-yl)-6-methyl-imidazo[1,2-a]pyridin-1-ium]
- PTEN protein expression [1]: increased expression up to 1 hr of PTEN protein
- Panc1 cells viability ([2]; 48 hours, increasing doses of BCN057): significant decrease in Panc1 cells viability
- IC50 ([2]; Homo sapiens, Panc-1, 72 hours post application, 2, 5, 10, 20 μM, Quest Graph IC50 Calculator): 1330 nM
- Cytotoxicity of combination of 5FU and BCN057 ([2]; Panc1, 5FU 50 μM plus BCN057 2-20 μM, 24, 48 and 72 hrs): greater cytotoxicity than 5FU alone
- Tumor viability on addition of BCN057 to Oxaliplatin, Irinotecan and 5FU ([2]; Panc-1, 10 μM each, over 72 hrs): general trend of decreasing tumor viability
- cytotoxicity toward the cells in the dose response curve ([2]; Panc-1, 2-20 μM): potent cytotoxicity toward the cells at all concentrations
- Sensitivity to cytotoxic effect of 5FU, Irinotecan and Oxaliplatin in combination with BCN057 ([2]; Panc-1, 24, 48 and 72 hours, all time points except Irinotecan and oxaliplatin at 72 hours): statistically significant sensitivity
- c-Jun phosphorylation at T-91/93 ([3]; KRAS mutant Panc-1 cells, within 20 minutes after drug treatment): significantly increases JNK dependent phosphorylation
- Total c-Jun protein level ([3]; Panc-1 cells): unchanged
